Source: patent publication US20150225377A1, “VEGFR3 INHIBITORS” (CANCER THERAPEUTICS CRC PTY LIMITED, priority 2012, published 2015)

The compounds below were run against T1, VEGFR3 (Homo sapiens, UniProt P35916) (assay: VEGFR3 Phospho ELISA assay in HMVEC-dLyAD cells, VEGFC stimulated). Conditions: 1 hour compound, 250 ng/mL VEGFC 10 minutes.
T1 construct: host or cells: HMVEC-dLyAD
Type: cell-based
Method: Adult human dermal lymphatic microvascular endothelial cells (HMVEC-dLyAD) (Cat#CC-2810, Lonza) were seeded into clear-bottom, TC treated 12 well plates (Cat #665180, Greiner Bio-One) in EGM-2MV (Cat#CC-3202, Lonza) at 180,000 cells/well (volume 1 mL), and the plates incubated at 37° C. and 5% CO2 for 6 hours. The media was replaced with EBM-2 (Cat #CC-3156, Lonza)+0.1% BSA (Cat#A8412, Sigma) and cells incubated for a further period (overnight at 37° C. and 5% CO2).
96 well Maxisorp immuno plates (Cat #439454, Nunc) were coated with 100 μL of Total VEGFR3 capture antibody (Part #841888, Human Total VEGFR3/FLT4 ELISA Kit, Cat #DYC3491, R&D Systems), or Phospho VEGFR3 Capture antibody (Part #841885, Human Phospho VEGFR3/FLT4 ELISA Kit, Cat#DYC2724, R&D Systems). The plates were covered and incubated at room temperature overnight.
The coating antibody was flicked out and the plates washed three times with Wash Buffer (Phosphate buffered saline (137 mM NaCl, […], […], […], pH 7.2-7.4), 0.05% Tween 20). 300 μL of blocking buffer (5% v/v Tween 20, 5% w/v sucrose in PBS) was then added to wells and plate incubated for 2 hours at room temperature. Blocking solution is flicked out and plates washed three times and tapped dry.
Compound dilution series were prepared in EBM-2 (Cat #CC-3156, Lonza)+0.1% BSA (Cat#A8412, Sigma) with constant 0.1% DMSO concentration. 439 μL of sample or vehicle control was added to the cell monolayers. Cells are treated for 1 hour at 37° C. and 5% CO2. 250 ng/mL Recombinant human VEGFC (Cat #2179-VC, R & D Systems) added to wells and plates incubated for an additional 10 minutes at 37° C. and 5% CO2.
The media and compounds were removed and the cell monolayer washed once in Dulbecco's Phosphate Buffered Saline (Cat #21600-044, Invitrogen). 130 μL of Lysis buffer added to wells and cell lysate harvested and transferred to tubes and stored on ice. Complete lysis buffer was prepared by adding 10 μL Protease Inhibitor Cocktail (Cat #P8340, Sigma-Aldrich), 10 μL PMSF (Phenylmethanesulfonyl fluoride, Cat #P7626, Sigma-Aldrich, prepared as 500 mM DMSO stock) per 1 mL of Phosphosafe™ Extraction Reagent (Cat #71296, Merck).
The harvested samples were then diluted 1:2 in IC Diluent #18 (5% Tween 20/PBS) and 100 μL transferred to the Total and Phospho VEGFR3 coated, blocked and washed 96 well plates and incubated for 2 hours at room temperature. The plates were then washed three times in wash buffer as described above and tapped dry.
For detection of Total VEGFR3100 μL of Detection antibody (Total VEGFR3 Detection Antibody Part#841888 in Total VEGFR3 kit) diluted in IC Diluent #1 (1% w/v BSA (Cat #A7906, Sigma-Aldrich)/PBS) was added to wells and the plate incubated for 2 hours at room temperature. The plate was then washed three times in wash buffer and tapped dry. 100 μL of streptavidin-HPR diluted in IC diluent #1 Streptavidin-HRP, Part #890803 in Total VEGFR3 kit) was added to wells and incubated at room temperature for 20 minutes followed by washing as described above 100 μL Substrate solution (3,3′,5,5′-Tetramethylbenzidine (TMB) Liquid Substrate System for ELISA, Cat #T0440, Sigma-Aldrich) was added and the plate incubated for 20 minutes in the dark at room temperature followed by the addition of 50 μL stop solution (2 M H2SO4).
Total VEGFR3 levels were quantified using a Multiskan Ascent plate reader and Ascent software fitted with 450 nm filter.
For detection of Phospho VEGFR3, 100 μL of Detection antibody (Anti-Phospho-Tyrosine-HRP Detection Antibody, Part #841403 in Phospho VEGFR3 kit) was diluted in IC Diluent #1 (1% w/v BSA/PBS), added to the wells and the plate incubated for 2 hours at room temperature. The plate was then washed three times in wash buffer as described above and tapped dry. […]

T1 sequence (P35916 25-1363): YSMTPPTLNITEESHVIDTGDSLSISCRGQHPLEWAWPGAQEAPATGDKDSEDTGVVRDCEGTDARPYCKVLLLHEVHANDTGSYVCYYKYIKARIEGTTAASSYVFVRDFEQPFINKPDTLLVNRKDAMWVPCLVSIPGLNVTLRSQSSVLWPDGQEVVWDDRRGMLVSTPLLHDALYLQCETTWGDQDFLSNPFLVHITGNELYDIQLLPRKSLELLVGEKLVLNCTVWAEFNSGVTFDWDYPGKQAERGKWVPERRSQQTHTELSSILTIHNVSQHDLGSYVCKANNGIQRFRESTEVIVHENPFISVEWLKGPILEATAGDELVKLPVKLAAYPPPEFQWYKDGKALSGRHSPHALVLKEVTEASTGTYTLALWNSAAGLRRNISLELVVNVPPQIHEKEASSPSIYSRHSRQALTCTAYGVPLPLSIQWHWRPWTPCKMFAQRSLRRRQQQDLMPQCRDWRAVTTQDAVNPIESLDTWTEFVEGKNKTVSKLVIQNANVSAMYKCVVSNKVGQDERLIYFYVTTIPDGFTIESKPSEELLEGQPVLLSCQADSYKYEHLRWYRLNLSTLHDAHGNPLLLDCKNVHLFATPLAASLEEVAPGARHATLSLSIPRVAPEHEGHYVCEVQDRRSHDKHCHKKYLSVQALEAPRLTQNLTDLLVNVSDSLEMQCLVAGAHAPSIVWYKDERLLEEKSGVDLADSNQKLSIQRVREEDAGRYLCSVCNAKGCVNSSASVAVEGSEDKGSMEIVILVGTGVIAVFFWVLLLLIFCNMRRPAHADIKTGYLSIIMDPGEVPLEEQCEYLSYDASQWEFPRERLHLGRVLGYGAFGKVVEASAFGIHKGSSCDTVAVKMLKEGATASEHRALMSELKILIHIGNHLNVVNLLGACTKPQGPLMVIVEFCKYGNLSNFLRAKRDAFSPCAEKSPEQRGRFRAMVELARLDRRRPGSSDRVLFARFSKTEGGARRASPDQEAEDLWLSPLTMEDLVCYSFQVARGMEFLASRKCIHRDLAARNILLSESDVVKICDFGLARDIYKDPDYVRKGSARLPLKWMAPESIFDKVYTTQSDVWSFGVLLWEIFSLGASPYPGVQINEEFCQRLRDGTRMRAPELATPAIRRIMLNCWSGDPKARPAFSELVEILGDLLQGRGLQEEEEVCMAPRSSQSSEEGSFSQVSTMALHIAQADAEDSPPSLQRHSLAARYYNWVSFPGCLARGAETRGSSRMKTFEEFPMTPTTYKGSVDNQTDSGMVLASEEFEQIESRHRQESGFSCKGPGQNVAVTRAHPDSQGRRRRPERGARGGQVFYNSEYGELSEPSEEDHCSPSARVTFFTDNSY

Row | Structure (SMILES) | IC50 [nM]
1 | Cc1cnc(Nc2ccc(N3CCNCC3)cc2)nc1CCc1ccccc1CC(N)=O [Compound 2, 2-(2-(2-(5-methyl-2-((4-(piperazin-1-yl)phenyl)amino)pyrimidin-4-yl)ethyl)phenyl)acetamide] | 121
2 | NCc1ccc(Nc2ncc(C(F)(F)F)c(CCc3ccccc3CC(N)=O)n2)cc1 [Compound 3, 2-(2-(2-(2-((4-(Aminomethyl)phenyl)amino)-5-(trifluoromethyl)pyrimidin-4-yl)ethyl)phenyl)acetamide] | 156
3 | Cc1cnc(Nc2ccc(C3CCNCC3)nc2)nc1CCc1ccccc1CC(N)=O [Compound 4, 2-(2-(2-(5-methyl-2-((6-(piperidin-4-yl)pyridin-3-yl)amino)pyrimidin-4-yl)ethyl)phenyl)acetamide] | 2220
4 | Cc1cnc(Nc2ccc(C3CCN(C)CC3)nc2)nc1CCc1ccccc1CC(N)=O [Compound 5, 2-(2-(2-(5-methyl-2-((6-(1-methylpiperidin-4-yl)pyridin-3-yl)amino)pyrimidin-4-yl)ethyl)phenyl)acetamide] | 210
5 | NC(=O)Cc1ccccc1CCc1nc(Nc2ccc(C(=O)N3CCNCC3)cc2)ncc1C(F)(F)F [Compound 6, 2-(2-(2-(2-((4-(piperazine-1-carbonyl)phenyl)amino)-5-(trifluoromethyl)pyrimidin-4-yl)ethyl)phenyl)acetamide] | 62
6 | Cc1cc(Nc2ncc(C(F)(F)F)c(CCc3ccccc3CC(N)=O)n2)ccc1C1CCNCC1 [Compound 11, 2-(2-(2-(2-((3-methyl-4-(piperidin-4-yl)phenyl)amino)-5-(trifluoromethyl)pyrimidin-4-yl)ethyl)phenyl)acetamide] | 39
7 | Cc1cc(Nc2ncc(C(F)(F)F)c(CCc3ccccc3CC(N)=O)n2)ccc1C1CCN(C)CC1 [Compound 12, 2-(2-(2-(2-((3-methyl-4-(1-methylpiperidin-4-yl)phenyl)amino)-5-(trifluoromethyl)pyrimidin-4-yl)ethyl)phenyl)acetamide] | 116
8 | Cc1cnc(Nc2ccc(C3CCNCC3)cc2)nc1CCc1ccccc1CC(N)=O [Compound 16, 2-(2-(2-(5-methyl-2-((4-(piperidin-4-yl)phenyl)amino)pyrimidin-4-yl)ethyl)phenyl)acetamide] | 214
9 | CC(N)c1ccc(Nc2ncc(C(F)(F)F)c(CCc3ccccc3CC(N)=O)n2)cc1 (stereo not drawn) [Compound 18, 2-(2-(2-(2-(4-(1-aminoethyl)phenylamino)-5-(trifluoromethyl)pyrimidin-4-yl)ethyl)phenyl)acetamide] | 18
10 | Cc1cnc(Nc2cccnc2)nc1CCc1ccccc1CC(N)=O [Compound 24, 2-(2-(2-(5-methyl-2-(pyridin-3-ylamino)pyrimidin-4-yl)ethyl)phenyl)acetamide] | 169
11 | Cc1cnc(Nc2ccc(OC3CCNCC3)cc2)nc1CCc1ccccc1CC(N)=O [Compound 26, 2-(2-(2-(5-methyl-2-((4-(piperidin-4-yloxy)phenyl)amino)pyrimidin-4-yl)ethyl)phenyl)acetamide] | 83
12 | Cc1cnc(Nc2cnn(C)c2)nc1CCc1ccccc1CC(N)=O [Compound 28, 2-(2-(2-(5-methyl-2-((1-methyl-^1H-pyrazol-4-yl)amino)pyrimidin-4-yl)ethyl)phenyl)acetamide] | 190
13 | Cc1cnc(Nc2ccc(C3(N)COC3)cc2)nc1CCc1ccccc1CC(N)=O [Compound 31, 2-(2-(2-(2-(4-(3-aminooxetan-3-yl)phenylamino)-5-methylpyrimidin-4-yl)ethyl)phenyl)acetamide] | 107
14 | Cc1cnc(Nc2cnn(C3CCNCC3)c2)nc1CCc1ccccc1CC(N)=O [Compound 33, 2-(2-(2-(5-Methyl-2-((1-(piperidin-4-yl)-^1H-pyrazol-4-yl)amino)pyrimidin-4-yl)ethyl)phenyl)acetamide] | 1250
15 | CC(N)c1ccc(Nc2ncc(Cl)c(CCc3ccccc3CC(N)=O)n2)cc1 (stereo not drawn) [Compound 37, 2-(2-(2-(2-(4-(1-aminoethyl)phenylamino)-5-chloropyrimidin-4-yl)ethyl)phenyl)acetamide] | 26
